# Reference: ChEMBL document CHEMBL3046389, “Synthesis and biological evaluation of novel hydroquinone dimethyl ethers as potential anticancer and antimicrobial agents” (2013)
# Key:
# Format in all cases: functional
# RXF 393 = assay: Growth inhibition of Homo sapiens (human) RXF393 cells at 10 uM after 48 hr by SRB assay; settings: RXF 393, 48 h, read-out: GI
# Candida albicans = assay: Antimicrobial activity against Candida albicans DSM 70014 after 48 hr by two-fold serial broth dilution method; settings: DSM 70014, 48 h
# Malme-3M = assay: Anticancer activity against Homo sapiens (human) MALME-3M cells after 48 hr by SRB assay; settings: for CC50: read-out: LC50 (the source's name)
# A549 = assay: Growth inhibition of Homo sapiens (human) A549/ATCC cells at 10 uM after 48 hr by SRB assay; settings: A549, 48 h, read-out: GI
# CAKI-1 = assay: Anticancer activity against Homo sapiens (human) CAKI-1 cells after 48 hr by SRB assay; settings: CAKI-1, 48 h; for CC50: read-out: LC50 (the source's name)
# SF-268 = assay: Anticancer activity against Homo sapiens (human) SF268 cells after 48 hr by SRB assay; settings: SF-268, 48 h; for CC50: read-out: LC50 (the source's name)
# HOP-62 = assay: Anticancer activity against Homo sapiens (human) HOP62 cells after 48 hr by SRB assay; settings: HOP-62, 48 h; for CC50: read-out: LC50 (the source's name)
# SF-539 = assay: Growth inhibition of Homo sapiens (human) SF539 cells at 10 uM after 48 hr by SRB assay; settings: SF-539, 48 h, read-out: GI
# CCRF-CEM [1] = assay: Growth inhibition of Homo sapiens (human) CCRF-CEM cells at 10 uM after 48 hr by SRB assay; settings: read-out: GI
# A498 = assay: Anticancer activity against Homo sapiens (human) A498 cells after 48 hr by SRB assay; settings: A498, 48 h
# UACC-257 = assay: Anticancer activity against Homo sapiens (human) UACC257 cells after 48 hr by SRB assay; settings: UACC-257, 48 h
# SW-620 = assay: Growth inhibition of Homo sapiens (human) SW620 cells at 10 uM after 48 hr by SRB assay; settings: SW-620, 48 h, read-out: GI
# HCT-116 = assay: Anticancer activity against Homo sapiens (human) HCT116 cells after 48 hr by SRB assay; settings: HCT-116, 48 h; for CC50: read-out: LC50 (the source's name)
# UO-31 = assay: Growth inhibition of Homo sapiens (human) UO31 cells at 10 uM after 48 hr by SRB assay; settings: UO-31, 48 h, read-out: GI
# SNB-75 [2] = assay: Growth inhibition of Homo sapiens (human) SNB75 cells at 10 uM after 48 hr by SRB assay; settings: SNB-75, 48 h, read-out: GI
# SK-MEL-5 = assay: Anticancer activity against Homo sapiens (human) SK-MEL-5 cells after 48 hr by SRB assay; settings: SK-MEL-5, 48 h
# UACC-62 = assay: Anticancer activity against Homo sapiens (human) UACC62 cells after 48 hr by SRB assay; settings: UACC-62, 48 h
# SNB-75 [3] = assay: Anticancer activity against Homo sapiens (human) SNB75 cells after 48 hr by SRB assay; settings: SNB-75, 48 h; for CC50: read-out: LC50 (the source's name)
# MCF7 [4] = assay: Growth inhibition of Homo sapiens (human) MCF7 cells at 10 uM after 48 hr by SRB assay; settings: MCF7, 48 h, read-out: GI
# NCI-H460 = assay: Anticancer activity against Homo sapiens (human) NCI-H460 cells after 48 hr by SRB assay; settings: NCI-H460, 48 h; for CC50: read-out: LC50 (the source's name)
# MCF7 [5] = assay: Anticancer activity against Homo sapiens (human) MCF7 cells after 48 hr by SRB assay; settings: MCF7, 48 h; for CC50: read-out: LC50 (the source's name)
# CCRF-CEM [6] = assay: Anticancer activity against Homo sapiens (human) CCRF-CEM cells after 48 hr by SRB assay; settings: for CC50: read-out: LC50 (the source's name)
# MDA-MB-231 = assay: Anticancer activity against Homo sapiens (human) MDA-MB-231/ATCC cells after 48 hr by SRB assay; settings: MDA-MB-231, 48 h; for CC50: read-out: LC50 (the source's name)
# NCI-H23 = assay: Anticancer activity against Homo sapiens (human) NCI-H23 cells after 48 hr by SRB assay; settings: NCI-H23, 48 h; for CC50: read-out: LC50 (the source's name)
# OVCAR-3 = assay: Growth inhibition of Homo sapiens (human) OVCAR3 cells at 10 uM after 48 hr by SRB assay; settings: OVCAR-3, 48 h, read-out: GI
# SK-MEL-2 = assay: Anticancer activity against Homo sapiens (human) SK-MEL-2 cells after 48 hr by SRB assay; settings: SK-MEL-2, 48 h; for CC50: read-out: LC50 (the source's name)
# MDA-MB-435 = assay: Growth inhibition of Homo sapiens (human) MDA-MB-435 cells at 10 uM after 48 hr by SRB assay; settings: MDA-MB-435, 48 h, read-out: GI
# MOLT-4 = assay: Growth inhibition of Homo sapiens (human) MOLT4 cells at 10 uM after 48 hr by SRB assay; settings: MOLT-4, 48 h, read-out: GI
# Bacillus subtilis = assay: Antimicrobial activity against Bacillus subtilis ATCC 6633 after 48 hr by two-fold serial broth dilution method; settings: ATCC 6633, 48 h
# IGROV-1 = assay: Anticancer activity against Homo sapiens (human) IGROV1 cells after 48 hr by SRB assay; settings: IGROV-1, 48 h
# MDA-MB-468 = assay: Anticancer activity against Homo sapiens (human) MDA-MB-468 cells after 48 hr by SRB assay; settings: MDA-MB-468, 48 h; for CC50: read-out: LC50 (the source's name)
# HT-29 = assay: Anticancer activity against Homo sapiens (human) HT-29 cells after 48 hr by SRB assay; settings: HT-29, 48 h; for CC50: read-out: LC50 (the source's name)
compound,measurement,setting,value
COc1ccc(OC)c(/C=C/c2nnc(S)n2-c2ccc(Cl)cc2)c1,inhibition of growth at 10 µM,RXF 393,48.1%
same,MFC,Candida albicans,100 µg/mL
same,MIC,Candida albicans,100 µg/mL
same,GI50,Malme-3M,70.6 µM
same,TGI,Malme-3M,> 100 µM
same,CC50,Malme-3M,> 100 µM
same,inhibition of growth at 10 µM,A549,33.7%
same,GI50,CAKI-1,2.8 µM
same,CC50,CAKI-1,> 100 µM
same,GI50,SF-268,17.5 µM
same,TGI,SF-268,> 100 µM
same,CC50,SF-268,> 100 µM
same,GI50,HOP-62,6.48 µM
same,TGI,HOP-62,> 100 µM
same,CC50,HOP-62,> 100 µM
same,inhibition of growth at 10 µM,SF-539,60.5%
same,inhibition of growth at 10 µM,CCRF-CEM [1],39.4%
same,GI50,A498,6.66 µM
same,LC50,A498,> 100 µM
same,TGI,A498,> 100 µM
same,GI50,UACC-257,> 100 µM
same,LC50 (50% lethal concentration),UACC-257,> 100 µM
same,TGI,UACC-257,> 100 µM
same,inhibition of growth at 10 µM,SW-620,49.6%
same,GI50,HCT-116,4.05 µM
same,TGI,HCT-116,> 100 µM
same,CC50,HCT-116,> 100 µM
same,inhibition of growth at 10 µM,UO-31,52.9%
same,inhibition of growth at 10 µM,SNB-75 [2],57.5%
same,GI50,SK-MEL-5,3.58 µM
same,LC50,SK-MEL-5,> 100 µM
same,TGI,SK-MEL-5,> 100 µM
same,GI50,UACC-62,3.11 µM
same,LC50,UACC-62,> 100 µM
same,TGI,UACC-62,> 100 µM
same,GI50,SNB-75 [3],2.85 µM
same,TGI,SNB-75 [3],> 100 µM
same,CC50,SNB-75 [3],> 100 µM
same,inhibition of growth at 10 µM,MCF7 [4],68%
same,GI50,NCI-H460,4.53 µM
same,TGI,NCI-H460,> 100 µM
same,CC50,NCI-H460,> 100 µM
same,GI50,MCF7 [5],4.44 µM
same,TGI,MCF7 [5],> 100 µM
same,CC50,MCF7 [5],> 100 µM
same,GI50,CCRF-CEM [6],4.77 µM
same,TGI,CCRF-CEM [6],> 100 µM
same,CC50,CCRF-CEM [6],> 100 µM
same,GI50,MDA-MB-231,14.5 µM
same,TGI,MDA-MB-231,> 100 µM
same,CC50,MDA-MB-231,> 100 µM
same,GI50,NCI-H23,5.88 µM
same,TGI,NCI-H23,> 100 µM
same,CC50,NCI-H23,> 100 µM
same,inhibition of growth at 10 µM,OVCAR-3,70.6%
same,GI50,SK-MEL-2,4.05 µM
same,TGI,SK-MEL-2,> 100 µM
same,CC50,SK-MEL-2,> 100 µM
same,inhibition of growth at 10 µM,MDA-MB-435,110%
same,inhibition of growth at 10 µM,MOLT-4,47.2%
same,MBC,Bacillus subtilis,100 µg/mL
same,MIC,Bacillus subtilis,100 µg/mL
same,GI50,IGROV-1,4.38 µM
same,LC50 (50% lethal concentration),IGROV-1,> 100 µM
same,TGI,IGROV-1,> 100 µM
same,GI50,MDA-MB-468,3.51 µM
same,TGI,MDA-MB-468,55.4 µM
same,CC50,MDA-MB-468,> 100 µM
same,GI50,HT-29,3.67 µM
same,TGI,HT-29,> 100 µM
same,CC50,HT-29,> 100 µM
COc1ccc(OC)c(/C=C/c2nnc(Nc3ccc(Cl)cc3)o2)c1,inhibition of growth at 10 µM,RXF 393,43.7%
same,MFC,Candida albicans,50 µg/mL
same,MIC,Candida albicans,50 µg/mL
same,GI50,Malme-3M,9.87 µM
same,TGI,Malme-3M,52.4 µM
same,CC50,Malme-3M,> 100 µM
same,inhibition of growth at 10 µM,A549,59.8%
same,GI50,CAKI-1,6.02 µM
same,TGI,CAKI-1,> 100 µM
same,CC50,CAKI-1,> 100 µM
same,GI50,SF-268,7.6 µM
same,TGI,SF-268,37.9 µM
same,CC50,SF-268,> 100 µM
same,GI50,HOP-62,2.71 µM
same,TGI,HOP-62,7.68 µM
same,CC50,HOP-62,38.9 µM
same,GI50,A498,1.87 µM
same,LC50,A498,> 100 µM
same,TGI,A498,7.76 µM
same,GI50,UACC-257,21.3 µM
same,LC50 (50% lethal concentration),UACC-257,> 100 µM
same,TGI,UACC-257,> 100 µM
same,inhibition of growth at 10 µM,SW-620,33.3%
same,GI50,HCT-116,2.97 µM
same,TGI,HCT-116,13.1 µM
same,CC50,HCT-116,> 100 µM
same,inhibition of growth at 10 µM,UO-31,95%
same,inhibition of growth at 10 µM,SNB-75 [2],84.2%
same,GI50,SK-MEL-5,7.17 µM
same,LC50,SK-MEL-5,> 100 µM
same,TGI,SK-MEL-5,> 100 µM
same,GI50,UACC-62,16.2 µM
same,LC50,UACC-62,> 100 µM
same,TGI,UACC-62,> 100 µM
same,GI50,SNB-75 [3],2.26 µM
same,TGI,SNB-75 [3],7.94 µM
same,CC50,SNB-75 [3],> 100 µM
same,GI50,NCI-H460,3.77 µM
same,TGI,NCI-H460,> 100 µM
same,CC50,NCI-H460,> 100 µM
same,GI50,MCF7 [5],20.7 µM
same,TGI,MCF7 [5],> 100 µM
same,CC50,MCF7 [5],> 100 µM
same,GI50,CCRF-CEM [6],> 100 µM
same,TGI,CCRF-CEM [6],> 100 µM
same,CC50,CCRF-CEM [6],> 100 µM
same,GI50,MDA-MB-231,5.23 µM
same,TGI,MDA-MB-231,53.1 µM
same,CC50,MDA-MB-231,> 100 µM
same,GI50,NCI-H23,21.7 µM
same,TGI,NCI-H23,> 100 µM
same,CC50,NCI-H23,> 100 µM
same,inhibition of growth at 10 µM,OVCAR-3,67.9%
same,GI50,SK-MEL-2,9.66 µM
same,TGI,SK-MEL-2,> 100 µM
same,CC50,SK-MEL-2,> 100 µM
same,MBC,Bacillus subtilis,100 µg/mL
same,MIC,Bacillus subtilis,100 µg/mL
same,GI50,IGROV-1,7.7 µM
same,LC50 (50% lethal concentration),IGROV-1,> 100 µM
same,TGI,IGROV-1,> 100 µM
same,GI50,MDA-MB-468,16.4 µM
same,TGI,MDA-MB-468,> 100 µM
same,CC50,MDA-MB-468,> 100 µM
same,GI50,HT-29,9.44 µM
same,TGI,HT-29,28.3 µM
same,CC50,HT-29,82.1 µM
